{"source": "paper PMC11392244", "about": "“Characterization of a unique catechol-O-methyltransferase as a molecular drug target in parasitic filarial nematodes” (PLOS Neglected Tropical Diseases, 2024)", "key": {"DiMT protein": {"tested_on": "DiMT protein", "format": "biochemical, Dirofilaria immitis"}, "mice": {"tested_on": "mice", "settings": "ref [59]; cited from earlier work"}, "Gram-positive bacteria": {"tested_on": "Gram-positive bacteria", "set-up": "method as in PMID 4622052", "settings": "in vitro and in vivo; ref [59]; cited from earlier work"}, "D. immitis microfilariae": {"tested_on": "D. immitis microfilariae", "experiment": "In vitro efficacy against live D. immitis microfilariae (motility, completely immotile %)", "format": "cell-based, Dirofilaria immitis", "settings": "for Completely Immotile Microfilariae (%): single experiments"}, "mammalian cells": {"tested_on": "mammalian cells", "settings": "read-out: Cytotoxicity IC50, ref Zhang et al., [30]; cited from earlier work"}}, "note": "Several values for one entry are separate records, joined by “and”; a condition that tells them apart may be missing. Equal values may be shown once. Read-outs that look alike come from different tables or passages of the source.", "data": [{"smiles": "CO[C@@H]1/C=C/O[C@@]2(C)Oc3c(C)c(O)c4c(c3C2=O)C(=N[C@@H]2CC[C@@H](O)O[C@H]2C)C=C(NC(=O)/C(C)=C\\C(=O)[C@@H]2C[C@@H]2[C@H](O)[C@@H](C)[C@@H](O)[C@@H](C)[C@H](OC(C)=O)[C@@H]1C)C4=O", "note": "[NSC177383, tolypomycin-Y]", "values": [{"measurement": "Mean Percent Inhibition", "setting": "DiMT protein; 40 µM", "result": "17.3% and 18.1% and 14.9%"}, {"measurement": "Mean Percent Inhibition, Average", "setting": "DiMT protein; 40 µM", "result": 16.8, "unit": "%"}, {"measurement": "Mean Percent Inhibition", "setting": "DiMT protein; 80 µM", "result": "30.5% and 30.7% and 34.4%"}, {"measurement": "Mean Percent Inhibition, Average", "setting": "DiMT protein; 80 µM", "result": 31.9, "unit": "%"}, {"measurement": "Mean Percent Inhibition", "setting": "DiMT protein; 120 µM", "result": "45.9% and 41.2% and 40.2%"}, {"measurement": "Mean Percent Inhibition, Average", "setting": "DiMT protein; 120 µM", "result": 42.4, "unit": "%"}, {"measurement": "Mean Percent Inhibition", "setting": "DiMT protein; 140 µM", "result": "50.6% and 45.4% and 42.2%"}, {"measurement": "Mean Percent Inhibition, Average", "setting": "DiMT protein; 140 µM", "result": 46.1, "unit": "%"}, {"measurement": "Mean Percent Inhibition", "setting": "DiMT protein; 180 µM", "result": "63.6% and 62.4% and 64.2%"}, {"measurement": "Mean Percent Inhibition, Average", "setting": "DiMT protein; 180 µM", "result": 63.4, "unit": "%"}, {"measurement": "IC50", "setting": "DiMT protein; read-out: IC 50 (μM ± SEM)", "result": "140 ± 2.2", "unit": "µM"}, {"measurement": "toxicity in mice", "setting": "mice", "result": "low toxicity"}, {"measurement": "antimicrobial activities against Gram-positive bacteria", "setting": "Gram-positive bacteria", "result": "strong antimicrobial activities"}, {"measurement": "Mean completely Immotile (%)", "setting": "D. immitis microfilariae; 10 µM, 0 h", "result": 0, "unit": "%"}, {"measurement": "Mean completely Immotile (%)", "setting": "D. immitis microfilariae; 10 µM, 24 h", "result": 7.83, "unit": "%"}, {"measurement": "Mean completely Immotile (%)", "setting": "D. immitis microfilariae; 10 µM, 48 h", "result": 18.5, "unit": "%"}, {"measurement": "Mean completely Immotile (%)", "setting": "D. immitis microfilariae; 10 µM, 72 h", "result": 27.33, "unit": "%"}, {"measurement": "Mean completely Immotile (%)", "setting": "D. immitis microfilariae; 10 µM, 96 h", "result": 38, "unit": "%"}, {"measurement": "Mean completely Immotile (%)", "setting": "D. immitis microfilariae; 10 µM, 120 h", "result": 56.33, "unit": "%"}, {"measurement": "Mean completely Immotile (%)", "setting": "D. immitis microfilariae; 25 µM, 0 h", "result": 0, "unit": "%"}, {"measurement": "Mean completely Immotile (%)", "setting": "D. immitis microfilariae; 25 µM, 24 h", "result": 25.33, "unit": "%"}, {"measurement": "Mean completely Immotile (%)", "setting": "D. immitis microfilariae; 25 µM, 48 h", "result": 33, "unit": "%"}, {"measurement": "Mean completely Immotile (%)", "setting": "D. immitis microfilariae; 25 µM, 72 h", "result": 71.33, "unit": "%"}, {"measurement": "Mean completely Immotile (%)", "setting": "D. immitis microfilariae; 25 µM, 96 h", "result": 91.33, "unit": "%"}, {"measurement": "Mean completely Immotile (%)", "setting": "D. immitis microfilariae; 40 µM, 0 h", "result": 0, "unit": "%"}, {"measurement": "Mean completely Immotile (%)", "setting": "D. immitis microfilariae; 40 µM, 24 h", "result": 57.67, "unit": "%"}, {"measurement": "Mean completely Immotile (%)", "setting": "D. immitis microfilariae; 40 µM, 48 h", "result": 87.67, "unit": "%"}, {"measurement": "Mean completely Immotile (%)", "setting": "D. immitis microfilariae; 40 µM, 72 h", "result": 96.67, "unit": "%"}, {"measurement": "Mean completely Immotile (%)", "setting": "D. immitis microfilariae; 40 µM, 96 h", "result": 100, "unit": "%"}, {"measurement": "Mean completely Immotile (%)", "setting": "D. immitis microfilariae; 40 µM, 120 h", "result": 100, "unit": "%"}, {"measurement": "Mean completely Immotile (%)", "setting": "D. immitis microfilariae; 50 µM, 0 h", "result": 0, "unit": "%"}, {"measurement": "Mean completely Immotile (%)", "setting": "D. immitis microfilariae; 50 µM, 24 h", "result": 64.67, "unit": "%"}, {"measurement": "Mean completely Immotile (%)", "setting": "D. immitis microfilariae; 50 µM, 48 h", "result": 93.67, "unit": "%"}, {"measurement": "Mean completely Immotile (%)", "setting": "D. immitis microfilariae; 50 µM, 72 h", "result": 100, "unit": "%"}, {"measurement": "Mean completely Immotile (%)", "setting": "D. immitis microfilariae; 50 µM, 96 h", "result": 100, "unit": "%"}, {"measurement": "Mean completely Immotile (%)", "setting": "D. immitis microfilariae; 50 µM, 120 h", "result": 100, "unit": "%"}, {"measurement": "Mean completely Immotile (%)", "setting": "D. immitis microfilariae; 75 µM, 0 h", "result": 0, "unit": "%"}, {"measurement": "Mean completely Immotile (%)", "setting": "D. immitis microfilariae; 75 µM, 24 h", "result": 95.33, "unit": "%"}, {"measurement": "Mean completely Immotile (%)", "setting": "D. immitis microfilariae; 75 µM, 48 h", "result": 100, "unit": "%"}, {"measurement": "Mean completely Immotile (%)", "setting": "D. immitis microfilariae; 75 µM, 72 h", "result": 100, "unit": "%"}, {"measurement": "Mean completely Immotile (%)", "setting": "D. immitis microfilariae; 75 µM, 96 h", "result": 100, "unit": "%"}, {"measurement": "Mean completely Immotile (%)", "setting": "D. immitis microfilariae; 75 µM, 120 h", "result": 100, "unit": "%"}, {"measurement": "Mean completely Immotile (%)", "setting": "D. immitis microfilariae; 100 µM, 0 h", "result": 0, "unit": "%"}, {"measurement": "Mean completely Immotile (%)", "setting": "D. immitis microfilariae; 100 µM, 24 h", "result": 100, "unit": "%"}, {"measurement": "Mean completely Immotile (%)", "setting": "D. immitis microfilariae; 100 µM, 48 h", "result": 100, "unit": "%"}, {"measurement": "Mean completely Immotile (%)", "setting": "D. immitis microfilariae; 100 µM, 72 h", "result": 100, "unit": "%"}, {"measurement": "Mean completely Immotile (%)", "setting": "D. immitis microfilariae; 100 µM, 96 h", "result": 100, "unit": "%"}, {"measurement": "Mean completely Immotile (%)", "setting": "D. immitis microfilariae; 100 µM, 120 h", "result": 100, "unit": "%"}, {"measurement": "EC50", "setting": "D. immitis microfilariae; 96 h post-treatment, read-out: Anti-parasitic EC50", "result": "11.7 µM and 11.6 µM"}, {"measurement": "Completely Immotile Microfilariae (%)", "setting": "D. immitis microfilariae; 10 µM, 0 h", "result": 0, "unit": "%"}, {"measurement": "Completely Immotile Microfilariae (%)", "setting": "D. immitis microfilariae; 10 µM, 24 h", "result": "5% and 8.5% and 10%"}, {"measurement": "Completely Immotile Microfilariae (%)", "setting": "D. immitis microfilariae; 10 µM, 48 h", "result": "15% and 19.5% and 21%"}, {"measurement": "Completely Immotile Microfilariae (%)", "setting": "D. immitis microfilariae; 10 µM, 72 h", "result": "25% and 27% and 30%"}, {"measurement": "Completely Immotile Microfilariae (%)", "setting": "D. immitis microfilariae; 10 µM, 96 h", "result": "35% and 38% and 41%"}, {"measurement": "Completely Immotile Microfilariae (%)", "setting": "D. immitis microfilariae; 10 µM, 120 h", "result": "50% and 61% and 58%"}, {"measurement": "Completely Immotile Microfilariae (%)", "setting": "D. immitis microfilariae; 25 µM, 0 h", "result": 0, "unit": "%"}, {"measurement": "Completely Immotile Microfilariae (%)", "setting": "D. immitis microfilariae; 25 µM, 24 h", "result": "25% and 28% and 23%"}, {"measurement": "Completely Immotile Microfilariae (%)", "setting": "D. immitis microfilariae; 25 µM, 48 h", "result": "30% and 37% and 32%"}, {"measurement": "Completely Immotile Microfilariae (%)", "setting": "D. immitis microfilariae; 25 µM, 72 h", "result": "70% and 76% and 68%"}, {"measurement": "Completely Immotile Microfilariae (%)", "setting": "D. immitis microfilariae; 25 µM, 96 h", "result": "90% and 95% and 89%"}, {"measurement": "Completely Immotile Microfilariae (%)", "setting": "D. immitis microfilariae; 25 µM, 120 h", "result": 100, "unit": "%"}, {"measurement": "Completely Immotile Microfilariae (%)", "setting": "D. immitis microfilariae; 40 µM, 0 h", "result": 0, "unit": "%"}, {"measurement": "Completely Immotile Microfilariae (%)", "setting": "D. immitis microfilariae; 40 µM, 24 h", "result": "50% and 65% and 58%"}, {"measurement": "Completely Immotile Microfilariae (%)", "setting": "D. immitis microfilariae; 40 µM, 48 h", "result": "85% and 90% and 88%"}, {"measurement": "Completely Immotile Microfilariae (%)", "setting": "D. immitis microfilariae; 40 µM, 72 h", "result": "95% and 98% and 97%"}, {"measurement": "Completely Immotile Microfilariae (%)", "setting": "D. immitis microfilariae; 40 µM, 96 h", "result": 100, "unit": "%"}, {"measurement": "Completely Immotile Microfilariae (%)", "setting": "D. immitis microfilariae; 40 µM, 120 h", "result": 100, "unit": "%"}, {"measurement": "Completely Immotile Microfilariae (%)", "setting": "D. immitis microfilariae; 50 µM, 0 h", "result": 0, "unit": "%"}, {"measurement": "Completely Immotile Microfilariae (%)", "setting": "D. immitis microfilariae; 50 µM, 24 h", "result": "60% and 78% and 56%"}, {"measurement": "Completely Immotile Microfilariae (%)", "setting": "D. immitis microfilariae; 50 µM, 48 h", "result": "90% and 95% and 96%"}, {"measurement": "Completely Immotile Microfilariae (%)", "setting": "D. immitis microfilariae; 50 µM, 72 h", "result": 100, "unit": "%"}, {"measurement": "Completely Immotile Microfilariae (%)", "setting": "D. immitis microfilariae; 50 µM, 96 h", "result": 100, "unit": "%"}, {"measurement": "Completely Immotile Microfilariae (%)", "setting": "D. immitis microfilariae; 50 µM, 120 h", "result": 100, "unit": "%"}, {"measurement": "Completely Immotile Microfilariae (%)", "setting": "D. immitis microfilariae; 75 µM, 0 h", "result": 0, "unit": "%"}, {"measurement": "Completely Immotile Microfilariae (%)", "setting": "D. immitis microfilariae; 75 µM, 24 h", "result": "95% and 93% and 98%"}, {"measurement": "Completely Immotile Microfilariae (%)", "setting": "D. immitis microfilariae; 75 µM, 48 h", "result": 100, "unit": "%"}, {"measurement": "Completely Immotile Microfilariae (%)", "setting": "D. immitis microfilariae; 75 µM, 72 h", "result": 100, "unit": "%"}, {"measurement": "Completely Immotile Microfilariae (%)", "setting": "D. immitis microfilariae; 75 µM, 96 h", "result": 100, "unit": "%"}, {"measurement": "Completely Immotile Microfilariae (%)", "setting": "D. immitis microfilariae; 75 µM, 120 h", "result": 100, "unit": "%"}, {"measurement": "Completely Immotile Microfilariae (%)", "setting": "D. immitis microfilariae; 100 µM, 0 h", "result": 0, "unit": "%"}, {"measurement": "Completely Immotile Microfilariae (%)", "setting": "D. immitis microfilariae; 100 µM, 24 h", "result": 100, "unit": "%"}, {"measurement": "Completely Immotile Microfilariae (%)", "setting": "D. immitis microfilariae; 100 µM, 48 h", "result": 100, "unit": "%"}, {"measurement": "Completely Immotile Microfilariae (%)", "setting": "D. immitis microfilariae; 100 µM, 72 h", "result": 100, "unit": "%"}, {"measurement": "Completely Immotile Microfilariae (%)", "setting": "D. immitis microfilariae; 100 µM, 96 h", "result": 100, "unit": "%"}, {"measurement": "Completely Immotile Microfilariae (%)", "setting": "D. immitis microfilariae; 100 µM, 120 h", "result": 100, "unit": "%"}, {"measurement": "effect on microfilariae", "setting": "D. immitis microfilariae; up to 120 h of culture", "result": "killing effect"}, {"measurement": "IC50", "setting": "mammalian cells", "result": 85.5, "unit": "µM"}]}]}
